# Measured values from publication PMC10662218 (RSC Advances, 2023).
# Target: Human insulin (monomeric insulin) (Homo sapiens, UniProt P01308)
# Assay: intrinsic Tyr fluorescence quenching
# Type: binding
# Details: insulin 25 μM, compound 2-24 μM, double-log
# Chain of Human insulin (monomeric insulin) (P01308 25-54): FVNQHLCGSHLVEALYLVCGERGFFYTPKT
# Chain of Human insulin (monomeric insulin) (P01308 90-110): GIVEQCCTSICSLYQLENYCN
row,SMILES,"K b, 10^4 (M^-1) / 293 K"
1,"COc1cccc(/C=N/C(CO)(CO)CO)c1O [3b, (E)-2-((2-hydroxy-3-methoxybenzylidene)amino)-2-(hydroxymethyl)propane-1,3-diol]",17.09 × 10^4 M^-1
2,"COc1cccc(/C=N/C(C)(C)C)c1O [3a, (E)-2-((tert-butylimino)methyl)-6-methoxyphenol]",2.18 × 10^4 M^-1
